Assay results published in patent US5278186A, “Chromene derivatives, their production and use” (Takeda Chemical Industries, Ltd., priority 1990, dated 1994).

Biological target: T1, Acyl-CoA : cholesterol acyltransferase (ACAT) (Rattus norvegicus, UniProt Q7TQM4)
T1 construct: from the mucosal microsome fraction of the small intestine; from tissue; host or cells: small intestine mucosa (microsome fraction), Sprague-Dawley rat
T1 sequence (Q7TQM4 1-524): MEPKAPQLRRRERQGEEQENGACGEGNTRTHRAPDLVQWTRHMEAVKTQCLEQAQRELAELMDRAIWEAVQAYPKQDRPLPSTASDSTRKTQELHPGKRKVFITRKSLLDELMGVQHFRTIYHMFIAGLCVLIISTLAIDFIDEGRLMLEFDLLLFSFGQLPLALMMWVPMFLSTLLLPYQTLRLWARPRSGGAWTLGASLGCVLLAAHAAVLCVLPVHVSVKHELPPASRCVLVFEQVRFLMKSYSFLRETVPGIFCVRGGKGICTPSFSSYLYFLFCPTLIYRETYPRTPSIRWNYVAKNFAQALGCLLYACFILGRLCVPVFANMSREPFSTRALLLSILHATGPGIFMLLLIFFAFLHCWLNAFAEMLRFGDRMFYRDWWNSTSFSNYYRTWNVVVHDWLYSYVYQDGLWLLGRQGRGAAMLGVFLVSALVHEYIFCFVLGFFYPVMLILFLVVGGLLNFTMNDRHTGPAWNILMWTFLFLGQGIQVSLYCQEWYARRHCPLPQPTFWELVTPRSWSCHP
Experiment: Acyl-CoA : cholesterol acyltransferase (ACAT) inhibitory activity
Type: biochemical
Conditions: mucosal microsome fraction of small intestine of male 6-week old fasted Sprague-Dawley rats, labeled cholesterol ester from [1^14 C] oleoyl-CoA; for inhibition at 1 µM: 10^-6 M, read-out: ACAT Inhibition Rate (%) 10^-6 M; for inhibition at 0.01 µM: 10^-8 M, read-out: ACAT Inhibition Rate (%) 10^-8 M
Protocol: The enzyme ACAT was prepared by the method of Heider et al. described in Journal of Lipid Research, Vol. 24, page 1127 (1982), from the mucosal microsome fraction of the small intestine of male, 6-week old Sprague-Dawley rats which had been fasted for 20 hours.
ACAT activity was calculated by the method of Helgerud et al. described in Journal of Lipid Research, Vol. 22, page 271 (1981), namely, by measuring the amount of the labeled cholesterol ester produced from [1^14 C] oleoyl-CoA and endogenous cholesterol.
Inhibition rates (%) of the production of the labeled cholesterol ester wherein 10^-6 M or 10^-8 M of test compounds were added are shown as an index of ACAT inhibitory activity in Table 1.

SMILES	inhibition at 1 µM [%]	inhibition at 0.01 µM [%]
Cc1ccccc1-c1c(NC(=O)Nc2ccc(F)cc2F)c(=O)oc2ccc(Cl)cc12 [Example 1, N-[6-chloro-4-(2-methylphenyl)-2-oxo-2H-1-benzopyran-3-yl]-N'-(2,4-difluorophenyl) urea]	99	–
Cc1ccccc1-c1c(NC(=O)Nc2ccc(F)cc2F)c(=O)oc2ccc(C(C)C)cc12 [Example 2, N-(2,4-difluorophenyl)-N'-[6-isopropyl-4-(2-methylphenyl)-2-oxo-2H-1-benzopyran-3-yl] urea]	99	–
Cc1cc2oc(=O)c(NC(=O)Nc3ccc(F)cc3F)c(-c3ccccc3C)c2cc1C [Example 3, N-(2,4-difluorophenyl)-N'-[4-(2-methylphenyl)-6,7-dimethyl-2-oxo-2H-1-benzopyran-3-yl] urea]	99.2	–
Cc1cc2oc(=O)c(NC(=O)Nc3ccc(Cl)cc3)c(-c3ccccc3C)c2cc1C [Example 4, N-(4-chlorophenyl)-N'-[6,7-dimethyl-4-(2-methylphenyl)-2-oxo-2-H-1-benzopyran-3-yl] urea]	–	69.7
CCc1ccc2oc(=O)c(NC(=O)Nc3ccc(F)cc3F)c(-c3ccccc3C)c2c1 [Example 6, N-[6-ethyl-4-(2-methylphenyl)-2-oxo-2H-1-benzopyran-3-yl]-N'-(2,4-difluorophenyl) urea]	–	45.9
Cc1cc2oc(=O)c(NC(=O)Nc3ccc(F)cc3F)c(-c3ccccc3C)c2cc1Cl [Example 7, N-[6-chloro-7-methyl-4-(2-methylphenyl)-2-oxo-2H-1-benzopyran-3-yl)-N'-(2,4-difuorophenyl) urea]	–	81.7
Cc1cc2oc(=O)c(NC(=O)Nc3ccc(F)cc3F)c(-c3ccccc3Cl)c2cc1C [Example 11]	–	86.7
Cc1ccc2oc(=O)c(NC(=O)Nc3ccc(F)cc3F)c(-c3ccccc3C)c2c1 [Example 16, N-[2,4-difluorophenyl)-N'-[6-methyl-4-(2-methylphenyl)-2-oxo-2H-1-benzopyran-3-yl) urea]	–	42.7
Cc1cc2c(-c3ccccc3C)c(NC(=O)Nc3ccc(F)cc3F)c(=O)oc2cc1Cl [Example 17, N-[7-chloro-6-methyl-4-(2-methylphenyl)-3-oxo-2H-1-benzopyran-3-yl)-N'-(2,4-difluorophenyl) urea]	–	84.2
Cc1ccc2oc(=O)c(NC(=O)Nc3ccc(F)cc3F)c(-c3ccccc3Cl)c2c1 [Example 18, N-[4-(2-chlorophenyl)-6-methyl-2-oxo-2H-1-benzopyran-3-yl)-N'-(2,4-difluorophenyl) urea]	–	56.1
COc1cc(C=CC(=O)Nc2c(-c3ccccc3C)c3cc(Cl)c(C)cc3oc2=O)cc(OC)c1OC(C)=O [Example 19, 3-(4-acetoxy-3,5-dimethoxycinnamoylamino)-6-chloro-7-methyl-4-(2-methylphenyl)-2H-1-benzopyran-2-one]	92.3	–
Cc1cc2oc(=O)c(NC(=O)Nc3cccc(C(F)(F)F)c3)c(-c3ccccc3C)c2cc1Cl [Example 20, N-[6-chloro-7-methyl-4-(2-methylphenyl)-2-oxo-2H-1-benzopyran-3-yl]-N'-(3-trifluoromethylphenyl) urea]	84.8	–
Cc1cc2sc(=O)c(NC(=O)Nc3ccc(F)cc3F)c(-c3ccccc3C)c2cc1Cl [Example 22, N-[6-chloro-7-methyl-4-(2-methylphenyl)-2-oxo-2H-1-thiobenzopyran-3-y-1)-N'-(2,4-difluorophenyl) urea]	97	–
COc1cc(NC(=O)Nc2c(-c3ccccc3Cl)c3cc(C)ccc3oc2=O)cc(OC)c1OC(C)=O [Example 24, N-(4-acetoxy-3,5-dimethoxyphenyl)-N'-[4-(2-chlorophenyl)-6-methyl-2-oxo-2H-1-benzopyran-3-yl] urea]	98.6	–
COc1cc(NC(=O)Nc2c(-c3ccccc3C)c3cc(C)c(C)cc3oc2=O)cc(OC)c1OC(C)=O [Example 25, N-(4-acetoxy-3,5-dimethoxyphenyl)-N'-[6,7-dimethyl-4-(2-methylphenyl)-2-oxo-2H-1-benzopyran-3-yl]urea]	98.8	–
COc1cc(NC(=O)Nc2c(-c3ccccc3C)c3cc(Cl)c(C)cc3oc2=O)cc(OC)c1OC(C)=O [Example 26, N-(4-acetoxy-3,5-dimethoxyphenyl)-N,-[6-chloro-7-methyl-4-(2-methylphenyl)-2-oxo-2H-1-benzopyran-3-yl]urea]	98.5	–
CC(=O)Oc1c(C)cc(NC(=O)Nc2c(-c3ccccc3C)c3cc(Cl)c(C)cc3oc2=O)cc1C [Example 27, N-(4-acetoxy-3,5-dimethylphenyl)-N'-[6-chloro-7-methyl-4-(2-methylphenyl)-2-oxo-2H-1-benzopyran-3-yl]urea]	99.1	–
Cc1cc2oc(=O)c(NC(=O)Cc3ccc(F)cc3F)c(-c3ccccc3C)c2cc1Cl [Example 28, 6-chloro-3-(2,4-difluorophenylacetylamino)-7-methyl-4-(2-methylphenyl)-2H-1-benzopyran-2-one]	–	34.3
Cc1cc2oc(=O)c(NC(=O)c3ccc(F)cc3F)c(-c3ccccc3C)c2cc1Cl [Example 29, 6-chloro-3-(2,4-difluorobenzoylamino)-7-methyl-4-(2-methylphenyl)-2H-1-benzopyran-2-one]	95.4	–
CC(C)c1ccc2oc(=O)c(NC(=O)Nc3ccc(F)cc3F)c(-c3ccc(F)cc3)c2c1 [Example 30, N-(2,4-difluorophenyl)-N'-[4-(4-fluorophenyl)-6-isopropyl-2-oxo-2H-1-benzopyran-3-yl] urea]	90.2	–
